In patent US11767295B2, “Isoindole derivative” (TIANJIN HEMAY PHARMACEUTICAL CO., LTD., priority 2018, dated 2023):

How the values were obtained:
Type in all cases: in vivo
[1] = tested on: DNCB-induced atopic dermatitis in Balb/c mice; test: Efficacy evaluation test of DNCB-induced atopic dermatitis in Balb/c mice model (Biological Example 3); conditions: BID × 11
Method: 30 healthy male SPF Balb/c mice, each of which the weight was 19-21 g, were randomly divided into 3 groups by body weight. There were 10 mice in each group.
(§1) Before the test, the hair around the right ear of the mouse was removed to reduce the interference in the drug adhesion to the hair.
(§2) The start of the test was recorded as Day 1. The specific time for measuring ear thickness and body weight was slightly adjusted based on FIG. 3. After the end of the Day 19 of the test, blood was taken from each animal to detect the concentration of immunoglobulin (IgE) in the serum (in accordance with the kit instructions). Both ears of the animal were cut off. Ear pieces were cut by an 8 mm punch at the fixed position of the ears and weighed. Differences in the swelling degree of two ears were calculated.
(§3) The changes in mouse ear thickness and the ear weights of the same area and the IgE concentrations in the serum of different groups on the 19th day were analyzed and compared statistically with One-Way Anova in SPSS 17, respectively. The G test method was used to delete outliers. p<0.05 indicated there were statistical differences. Ear swelling degree (mg)=right ear weight (mg)−left ear weight (mg); Ear thickness change (mm)=right ear thickness (mm)−left ear thickness (mm); Inhibitory rate of ear swelling degree (%)=1−(ear swelling degree of drug administration group−ear swelling degree of blank control group)/(ear swelling degree of model control group−ear swelling degree of blank control group)×100%; Inhibitory rate of ear thickness change (%)=1−(ear thickness change of drug administration group−ear thickness change of blank control group)/(ear thickness change of model control group−ear thickness change of blank control group)×100%; Inhibitory rate of IgE (%)=1−(IgE concentration in administration group−IgE concentration in blank control group)/(IgE concentration in model control group−IgE concentration in blank control group)×100%.

[2] = tested on: DNCB-induced atopic dermatitis in Balb/c mice; test: Efficacy evaluation test of DNCB-induced atopic dermatitis in Balb/c mice model (Biological Example 1); conditions: BID × 10; for Inhibitory Rate of Ear Swelling Degree / Inhibitory Rate of Ear Thickness / Ear Thickness Change, Day 1 / Ear Thickness Change, Day 10 / Weight Changes of Animals, Day 10 / Ear Thickness Change, Day 17 / Weight Changes of Animals, Day 17 / Ear Thickness Change, Day 18 / Weight Changes of Animals, Day 18 / Ear Thickness / Ear Swelling Degree / IgE Concentration / Inhibitory Rate of IgE Concentration: 1 mg/mouse on ear; for Inhibitory Rate of Ear Swelling Degree / Inhibitory Rate of Ear Thickness / Ear Thickness / Ear Swelling Degree / IgE Concentration / Inhibitory Rate of IgE Concentration: 18th day; for Inhibitory Rate of Ear Swelling Degree / Inhibitory Rate of Ear Thickness / Inhibitory Rate of IgE Concentration: vs model and blank control; for Weight Changes of Animals, Day 1 / Inhibitory Rate of Ear Thickness / Ear Thickness Change, Day 1 / Ear Thickness Change, Day 10 / Weight Changes of Animals, Day 10 / Ear Thickness Change, Day 17 / Weight Changes of Animals, Day 17 / Ear Thickness Change, Day 18 / Weight Changes of Animals, Day 18 / Ear Thickness: Balb/c mice; for Weight Changes of Animals, Day 1: 1 mg/mouse (50 mg/mL, 20 μL) on ear; for Weight Changes of Animals, Day 1 / Ear Thickness Change, Day 1 / Ear Thickness Change, Day 10 / Weight Changes of Animals, Day 10 / Ear Thickness Change, Day 17 / Weight Changes of Animals, Day 17 / Ear Thickness Change, Day 18 / Weight Changes of Animals, Day 18: Mean ± S.D.; for Ear Thickness: Table 4; for Ear Swelling Degree: right minus left ear piece weight (8 mm punch); for IgE Concentration / Inhibitory Rate of IgE Concentration: serum
Method: 60 healthy male SPF Balb/c mice, each of which the body weight was 19-21 g, were randomly divided into 6 groups by body weight. There were 10 mice in each group.
as §1
as §2, with “thickness” for “thickness and body weight”, “1.” for “3.”, “18th day” for “Day 19”, “degrees” for “degree”
as §3, with “serum among” for “serum of”, “the 18th” for “the 19th”

[3] = tested on: Phorbol ester (TPA)-induced ear swelling in mice; test: Inhibition of phorbol ester (TPA)-induced ear swelling in mice (Biological Example 4); conditions: ICR mice, 30 mg/mL in acetone, 40 μL in 2 administrations on right ear; 5 hours after TPA modeling
Method: 40 male ICR mice were selected and divided into 5 groups. There were 8 mice in each group.
Before the test, the animals were grouped and the hair around the right ear of the mice was removed.
20 μL of respective drug was applied to the animals in each test group (a blank solvent was applied to the model control group). Modeling and induction were carried out after 1 h 10 min. Except for the blank group, 20 μL of TPA at a concentration of 125 μg/mL were applied to the right ears of the animals for induction. After induction for 10 minutes, 20 μL of respective drug was applied to the right ears of the animals in each test group (a blank solvent was applied to the model control group).
After modeling for 5 hours, ear pieces of both sides on the same location of animals in each group were taken with a punch and weighed to calculate the ear swelling degree, ear swelling rate and inhibitory rate.
The ear swelling degree and ear swelling rate after modeling and administration for 5 hours were analyzed and tested with One-Way ANOVA multiple-group test index in SPSS17.0. P<0.05 indicated there were statistical differences. Ear swelling degree (mg)=right ear weight (mg)−left ear weight (mg); Ear swelling rate (%)=(right ear weight−left ear weight)/left ear weight×100%; Inhibitory rate of ear swelling degree (%)=1−(ear swelling degree of drug administration group−ear swelling degree of blank control group)/(ear swelling degree of model control group−ear swelling degree of blank control group)×100%.

[4] = 0.1 mg/mouse on ear, 19th day, vs model and blank control

CCOc1cc([C@H](CC(=O)OC)N2C(=O)c3cccc(NC(C)=O)c3C2=O)ccc1OC [Example 10, methyl (S)-3-(4-acetamido-1,3-dioxoisoindolin-2-yl)-3-(3-ethoxy-4-methoxyphenyl)propionate]
Inhibitory Rate of Ear Swelling [1, 4]: 38.5% | Inhibitory Rate of Ear Thickness [1, 4]: 27.1% | Weight Changes of Animals, Day 1 ([1]; Balb/c mice, 0.1 mg/mouse (5 mg/mL, 20 μL) on ear, Day 1, Mean): 20.5 g | Ear Thickness Change, Day 1 ([1]; Balb/c mice, 0.1 mg/mouse on ear, Day 1, Mean ± S.D.): 0.26 ± 0.01 mm | Weight Changes of Animals, Day 8 ([1]; Balb/c mice, 0.1 mg/mouse on ear, Day 8, Mean): 21.8 g | Ear Thickness Change, Day 10 ([1]; Balb/c mice, 0.1 mg/mouse on ear, Day 10, Mean ± S.D.): 0.52 ± 0.11 mm | Weight Changes of Animals, Day 12 ([1]; Balb/c mice, 0.1 mg/mouse on ear, Day 12, Mean): 21.9 g | Weight Changes of Animals, Day 14 ([1]; Balb/c mice, 0.1 mg/mouse on ear, Day 14, Mean): 22.2 g | Weight Changes of Animals, Day 16 ([1]; Balb/c mice, 0.1 mg/mouse on ear, Day 16, Mean): 22.0 g | Ear Thickness Change, Day 17 ([1]; Balb/c mice, 0.1 mg/mouse on ear, Day 17, Mean ± S.D.): 0.65 ± 0.09 mm | Weight Changes of Animals, Day 19 ([1]; Balb/c mice, 0.1 mg/mouse on ear, Day 19, Mean): 22.3 g | Ear Thickness Change, Day 19 ([1]; Balb/c mice, 0.1 mg/mouse on ear, Day 19, Mean ± S.D.): 0.63 ± 0.05 mm | Ear Thickness ([1]; Table 11, 0.1 mg/mouse on ear, 19th day): 0.63 mm | Ear Swelling Degree ([1]; right minus left ear piece weight, 0.1 mg/mouse on ear, 19th day): 7.7 mg | IgE Concentration ([1]; serum, 0.1 mg/mouse on ear, 19th day): 5543.4 ng/mL | Inhibitory Rate of IgE Concentration ([1]; serum, 0.1 mg/mouse on ear, 19th day, vs model and blank control): 29.7% | Inhibitory Rate of Ear Swelling Degree [2]: 45.7% | Weight Changes of Animals, Day 1 [2]: 20.6 ± 0.8 g | Inhibitory Rate of Ear Thickness [2]: 58.8% | Ear Thickness Change, Day 1 [2]: 0.21 ± 0.01 mm | Ear Thickness Change, Day 10 [2]: 0.35 ± 0.07 mm | Weight Changes of Animals, Day 10 [2]: 22.3 ± 1.1 g | Ear Thickness Change, Day 17 [2]: 0.46 ± 0.10 mm | Weight Changes of Animals, Day 17 [2]: 21.8 ± 1.3 g | Ear Thickness Change, Day 18 [2]: 0.44 ± 0.07 mm | Weight Changes of Animals, Day 18 [2]: 22.4 ± 1.3 g | Ear Thickness [2]: 0.44 ± 0.07 mm | Ear Swelling Degree [2]: 13.7 ± 2.9 mg | IgE Concentration [2]: 4366.7 ± 1933.9 ng/mL | Inhibitory Rate of IgE Concentration [2]: 57.5% | Inhibitory Rate of Ear Swelling Degree [3]: 71.7%

CCOc1cc(C(CC(=O)OC)N2C(=O)c3cccc(NC(C)=O)c3C2=O)ccc1OC (centres unmarked) [Example 1, methyl 3-(4-acetamido-1,3-dioxoisoindolin-2-yl)-3-(3-ethoxy-4-methoxyphenyl)propionate]
Inhibitory Rate of Ear Swelling Degree [2]: 21.3% | Weight Changes of Animals, Day 1 [2]: 21.0 ± 0.8 g | Inhibitory Rate of Ear Thickness [2]: 22.5% | Ear Thickness Change, Day 1 [2]: 0.22 ± 0.02 mm | Ear Thickness Change, Day 10 [2]: 0.47 ± 0.02 mm | Weight Changes of Animals, Day 10 [2]: 22.4 ± 0.8 g | Ear Thickness Change, Day 17 [2]: 0.60 ± 0.08 mm | Weight Changes of Animals, Day 17 [2]: 21.9 ± 1.1 g | Ear Thickness Change, Day 18 [2]: 0.64 ± 0.07 mm | Weight Changes of Animals, Day 18 [2]: 22.0 ± 1.3 g | Ear Thickness [2]: 0.64 ± 0.07 mm | Ear Swelling Degree [2]: 19.9 ± 5.1 mg | IgE Concentration [2]: 6631.4 ± 1431.1 ng/mL | Inhibitory Rate of IgE Concentration [2]: 25.6% | Inhibitory Rate of Ear Swelling Degree [3]: 60.1%

CCOc1cc([C@@H](CC(=O)OC)N2C(=O)c3cccc(NC(C)=O)c3C2=O)ccc1OC [Example 9, methyl (R)-3-(4-acetamido-1,3-dioxoisoindolin-2-yl)-3-(3-ethoxy-4-methoxyphenyl)propionate]
Inhibitory Rate of Ear Swelling Degree [3]: 54.5%
